Patent US6753337B2, “Alkynyl containing hydroxamic acid compounds as matrix metalloproteinase/tace inhibitors” (Wyeth Holdings Corporation, priority 1999, dated 2004)
Counter-ions that a name gives are not always drawn.

Assays:
[1] = target: TNF-α converting enzyme (TACE) (Homo sapiens, UniProt P78536); assay: Test procedure for measuring TACE inhibition (fluorescent peptidyl substrate); assay type: biochemical
Procedure: Using 96-well black microtiter plates, each well receives a solution composed of 10 μL TACE (final concentration 1 μg/mL), 70 μL Tris buffer, pH 7.4 containing 10% glycerol (final concentration 10 mM), and 10 μL of test compound solution in DMSO (final concentration 1 μM, DMSO concentration <1%) and incubated for 10 minutes at room temperature. The reaction is initiated by addition of a fluorescent peptidyl substrate (final concentration 100 μM to each well and then shaking on a shaker for 5 sec.
The reaction is read (excitation 340 nm, emission 420 nm) for 10 min. and the increase in fluorescence over time is plotted as a linear line. The slope of the line is calculated and represents the reaction rate.
The mean (x±sem) of the control rate is calculated and compared for statistical significance (p<0.05) with drug-treated rates using Dunnett's multiple comparison test.

THP-1 cells = assay: Human monocytic THP-1 cell differentiation assay for soluble proteins (THP-1 soluble protein assay); assay type: cell-based; details: LPS-stimulated THP-1 cells, soluble protein not given
Description: Mitogenic stimulation of THP-1 cells cause differentiation into macrophage like cells with concomitant secretion of tumor necrosis factor (TNF-α) and TNF receptor (TNF-R p75/80 and TNF-R p55160) and Interleukin-8 (IL-8), among other proteins. In addition, non-stimulated THP-1 cells shed both the p75/80 and the p55/60 receptors over time. The release of membrane bound TNF-α and possibly TNF-R p75/80 and TNF-R p55/60, but not IL-8, is mediated by an enzyme called TNF-α converting enzyme or TACE.
THP-1 cells (from ATCC) are a human monocytic cell line which were obtained from the peripheral blood of a person with acute monocytic leukemia. They can be grown in culture and differentiated into macrophage like cells by stimulation with mitogens.
Each vial of cells are cultured for about two weeks prior to being used for an assay and then are used for only 4 to 6 weeks to screen compounds.
Cell exposure to DMSO was limited to 0.1% final concentration. […] Compounds can be evaluated for their effect on basal (non-stimulated) shedding of the receptors by replacing the LPS with […] of THP-1 media.
Plates are placed into an incubator set at 5% CO2 and at 37° C. After 4 hours of incubation, […] of tissue culture supernatant (TCS) is removed for use in an TNF-α ELISA. Following 24 hours of incubation, […] of TCS is removed and used for analysis in TNF-R p75/80, TNF-R p55160 and IL-8 ELISAs.
In addition, at the 24 hours timepoint, and the cells for each treatment group are collected by resuspension in 500 μl/well of THP-1 media and transferred into a FACS tube. […] The samples are run on a Becton Dickinson FaxCaliber FLOW cytometry machine and the amount of dye taken up by each cell is measured in the high red wavelength (FL3). Only cells with compromised membranes (dead or dying) can take up PI. The percent of live cells is calculated by the number of cells not stained with PI, divided by the total number of cells in the sample. The viability values calculated for the drug treated groups were compared to the viability value calculated for the vehicle treated mitogen stimulated group (“vehicle positive control”) to determine the “percent change from control”. This “percent change from control” value is an indicator of drug toxicity.
The quantity of soluble TNF-α, TNF-R p75/80 and TNF-R p55160 and IL-8 in the TCS of the THP-1 cell cultures are obtained with commercially available ELISAs from R&D Systems, by extrapolation from a standard curve generated with kit standards. The number of cells that either take up or exclude PI are measured by the FLOW cytometry machine and visualized by histograms using commercially available Cytologic software for each treatment group including all controls.
Biological variability in the magnitude of the response of THP-1 cell cultures requires that experiments be compared on the basis of percent change from “vehicle positive control” for each drug concentration. Percent change in each soluble protein evaluated from the “vehicle positive control” was calculated for each compound concentration with the following formula: [formula]
For the soluble protein (TNF-α, p75/80, p55/60, IL-8) studies under stimulated conditions, the mean pg/ml of duplicate wells were determined and the results expressed as percent change from “vehicle positive control”. For the soluble protein (p75/80 and p55/60 receptors) studies under non-stimulated conditions, the mean pg/ml of duplicate wells were determined and the results expressed as percent change from “vehicle positive control” utilizing the following formula: [formula]
IC50 values for each compound are calculated by non-linear regression analysis using customized software utilizing the JUMP statistical package.
For the cell viability studies, the viabilities (PI exclusion) of pooled duplicate wells were determined and the results expressed as % change from “vehicle positive control”.

MMP-9 = MMP-9 (Homo sapiens, UniProt P14780); assay: MMP-9 inhibition (thiopeptide or fluorescent peptide substrate); assay type: biochemical; details: for IC50: read-out: MMP9 IC50
Procedure: (§1) These standard pharmacological test procedures are based on the cleavage of a thiopeptide substrates such as Ac-Pro-Leu-Gly(2-mercapto-4-methyl-pentanoyl)-Leu-Gly-OEt by the matrix metalloproteinases MMP-1, MMP-13 (collagenases) or MMP-9 (gelatinase), which results in the release of a substrate product that reacts colorimetrically with DTNB (5,5′-dithiobis(2-nitro-benzoic acid)). The enzyme activity is measured by the rate of the color increase. The thiopeptide substrate is made up fresh as a 20 mM stock in 100% DMSO and the DTNB is dissolved in 100% DMSO as a 100 mM stock and stored in the dark at room temperature. Both the substrate and DTNB are diluted together to 1 mM with substrate buffer (50 mM HEPES pH 7.5, 5 mM CaCl2) before use. The stock of enzyme is diluted with buffer (50 mM HEPES, pH 7.5, 5 mM CaCl2, 0.02% Brij) to the desired final concentration. The buffer, enzyme, vehicle or inhibitor, and DTNB/substrate are added in this order to a 96 well plate (total reaction volume of 200 μl) and the increase in color is monitored spectrophotometrically for 5 minutes at 405 nm on a plate reader and the increase in color over time is plotted as a linear line.
(§2) Alternatively, a fluorescent peptide substrate is used. In this test procedure, the peptide substrate contains a fluorescent group and a quenching group. Upon cleavage of the substrate by an MMP, the fluorescence that is generated is quantitated on the fluorescence plate reader. The assay is run in HCBC assay buffer (50 mM HEPES, pH 7.0, 5 mM Ca^+2, 0.02% Brij, 0.5% Cysteine), with human recombinant MMP-1, MMP-9, or MMP-13. The substrate is dissolved in methanol and stored frozen in 1 mM aliquots. For the assay, substrate and enzymes are diluted in HCBC buffer to the desired concentrations. Compounds are added to the 96 well plate containing enzyme and the reaction is started by the addition of substrate. The reaction is read (excitation 340 nm, emission 444 nm) for 10 min. and the increase in fluorescence over time is plotted as a linear line.
(§3) For either the thiopeptide or fluorescent peptide test procedures, the slope of the line is calculated and represents the reaction rate. The linearity of the reaction rate is confirmed (r^2>0.85). The mean (x±sem) of the control rate is calculated and compared for statistical significance (p<0.05) with drug-treated rates using Dunnett's multiple comparison test. Dose-response relationships can be generated using multiple doses of drug and IC50 values with 95% CI are estimated using linear regression.

MMP-13 = MMP-13 (Homo sapiens, UniProt P45452); assay: MMP-13 inhibition (thiopeptide or fluorescent peptide substrate); assay type: biochemical; details: for IC50: read-out: MMP13 IC50
Procedure: The enzyme activity is measured by the rate of the color increase. The thiopeptide substrate is made up fresh as a 20 mM stock in 100% DMSO and the DTNB is dissolved in 100% DMSO as a 100 mM stock and stored in the dark at room temperature. Both the substrate and DTNB are diluted together to 1 mM with substrate buffer (50 mM HEPES pH 7.5, 5 mM CaCl2) before use. The stock of enzyme is diluted with buffer (50 mM HEPES, pH 7.5, 5 mM CaCl2, 0.02% Brij) to the desired final concentration.
as §2, with “substrate.” for “substrate. The reaction is read (excitation 340 nm, emission 444 nm) for 10 min. and the increase in fluorescence over time is plotted as a linear line.”
For either the thiopeptide or fluorescent peptide test procedures, the slope of the line is calculated and represents the reaction rate. […] The mean (x±sem) of the control rate is calculated and compared for statistical significance (p<0.05) with drug-treated rates using Dunnett's multiple comparison test.

MMP-1 = target: T1, MMP-1 (Homo sapiens, UniProt P03956); assay: MMP-1 inhibition (thiopeptide or fluorescent peptide substrate); assay type: biochemical; details: for IC50: read-out: MMP1 IC50
T1 sequence (P03956 100-469): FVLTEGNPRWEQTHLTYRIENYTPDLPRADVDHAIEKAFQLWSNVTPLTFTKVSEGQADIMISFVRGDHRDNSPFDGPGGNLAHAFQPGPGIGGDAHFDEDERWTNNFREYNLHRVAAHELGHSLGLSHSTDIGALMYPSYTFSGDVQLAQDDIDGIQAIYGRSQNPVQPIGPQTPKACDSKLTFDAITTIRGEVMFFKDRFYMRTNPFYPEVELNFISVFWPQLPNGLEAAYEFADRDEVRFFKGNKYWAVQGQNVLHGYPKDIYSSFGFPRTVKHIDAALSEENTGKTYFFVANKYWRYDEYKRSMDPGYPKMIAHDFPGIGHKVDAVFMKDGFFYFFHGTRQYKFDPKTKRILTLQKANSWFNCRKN
Procedure: as §1, §2, §3

Sequence of MMP-9 (P14780 94-707): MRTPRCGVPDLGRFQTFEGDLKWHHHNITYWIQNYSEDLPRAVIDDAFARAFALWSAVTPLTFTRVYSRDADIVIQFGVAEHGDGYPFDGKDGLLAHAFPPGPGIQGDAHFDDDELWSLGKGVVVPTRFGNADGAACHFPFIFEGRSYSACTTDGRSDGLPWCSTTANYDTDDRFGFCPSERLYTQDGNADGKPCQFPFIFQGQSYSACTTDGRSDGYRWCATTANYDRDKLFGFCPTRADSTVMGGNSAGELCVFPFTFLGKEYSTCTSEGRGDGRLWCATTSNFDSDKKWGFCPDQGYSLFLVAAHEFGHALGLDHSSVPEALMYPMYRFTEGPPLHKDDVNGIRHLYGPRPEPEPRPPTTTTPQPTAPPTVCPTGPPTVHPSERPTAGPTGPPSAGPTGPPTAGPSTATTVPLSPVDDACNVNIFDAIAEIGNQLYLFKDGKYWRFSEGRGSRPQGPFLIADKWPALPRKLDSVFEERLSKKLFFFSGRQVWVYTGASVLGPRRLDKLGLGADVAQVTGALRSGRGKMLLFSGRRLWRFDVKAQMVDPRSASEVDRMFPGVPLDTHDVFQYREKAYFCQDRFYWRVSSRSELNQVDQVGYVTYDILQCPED
Sequence of TNF-α converting enzyme (TACE) (P78536 215-824): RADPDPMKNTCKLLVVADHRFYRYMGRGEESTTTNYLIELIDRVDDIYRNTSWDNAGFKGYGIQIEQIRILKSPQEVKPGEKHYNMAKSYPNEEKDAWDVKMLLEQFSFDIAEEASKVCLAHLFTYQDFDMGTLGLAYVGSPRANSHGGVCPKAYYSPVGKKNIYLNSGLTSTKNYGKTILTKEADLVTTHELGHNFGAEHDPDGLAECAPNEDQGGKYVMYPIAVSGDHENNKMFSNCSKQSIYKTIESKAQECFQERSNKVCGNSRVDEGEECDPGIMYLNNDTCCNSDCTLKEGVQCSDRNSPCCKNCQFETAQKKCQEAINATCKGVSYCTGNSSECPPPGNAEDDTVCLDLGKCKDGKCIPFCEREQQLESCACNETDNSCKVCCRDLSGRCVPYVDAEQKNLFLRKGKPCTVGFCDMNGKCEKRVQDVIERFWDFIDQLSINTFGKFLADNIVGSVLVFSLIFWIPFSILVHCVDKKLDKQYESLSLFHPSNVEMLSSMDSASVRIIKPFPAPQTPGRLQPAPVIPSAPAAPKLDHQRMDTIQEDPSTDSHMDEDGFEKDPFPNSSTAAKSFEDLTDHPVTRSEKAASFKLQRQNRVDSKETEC

| SMILES | IC50 [1] | IC50 (MMP-9) | IC50 (MMP-13) | inhibition at 3 µM (THP-1 cells) | other results |
| --- | --- | --- | --- | --- | --- |
| CC#CCOc1ccc(S(=O)(=O)C2(C(=O)NO)CCN(Cc3ccc(Cl)c(Cl)c3)CC2)cc1 (as salt: HCl) [Example 10, 4-(4-But-2-ynyloxy-benzenesulfonyl)-1-(3,4-dichloro-benzyl)-piperidine-4-carboxylic acid hydroxyamide] |  |  |  |  | melting point: 213 °C |
| CCCCCC#CCOc1ccc(S(=O)(=O)C2(C(=O)NO)CCN(Cc3ccc(Br)cc3)CC2)cc1 (as salt: hydrochloride) [Example 6, 1-(4-Bromo-benzyl)-4-(4-oct-2-ynyloxy-benzenesulfonyl)-piperdine-4-carboxylic acid hydroxyamide] |  |  |  |  | melting point: 140 °C |
| O=C(NO)C1(S(=O)(=O)c2ccc(OCC#CCN3CCOCC3)cc2)CCN(Cc2ccc(Br)cc2)CC1 [Example 13, 1-(4-Bromo-benzyl)-4-[4-(4-morpholin-4-yl-but-2-ynyloxy)-benzenesulfonyl]-piperdine-4-carboxylic acid hydroxyamide] | 882 nM | 2000 nM | 800 nM | 69% |  |
| CC#CCOc1ccc(SC2(C(=O)NO)CCNCC2)cc1 [Example 15, 4-(4-But-2-ynyloxy-phenylsulfanyl)-piperidine-4-carboxylic acid hydroxyamide] |  |  |  |  | inhibition at 1 µM [1]: 38%; MMP9 % inhibition (MMP-9; printed in the MMP9 IC50 column, concentration not given): 25%; MMP13 % inhibition (MMP-13; MMP13 IC50, concentration not given): 24%; MMP1 % inhibition (MMP-1; printed in the MMP1 IC50 column, concentration not given): 24% |

Continued, in another order:

| IC50 [1] | IC50 (MMP-9) | IC50 (MMP-13) | SMILES | inhibition at 3 µM (THP-1 cells) | other results |
| --- | --- | --- | --- | --- | --- |
| 139 nM | 2300 nM | 946 nM | CC#CCOc1ccc(SCC2(C(=O)NO)CCOCC2)cc1 [Example 17, 4-(4-But-2-ynyloxy-phenylsulfanylmethyl)-tetrahydro-pyran-4-carboxylic acid hydroxyamide] | 0% |  |
| 11.4 nM | 1280 nM | 98 nM | CC#CCOc1ccc(S(=O)(=O)CC2(C(=O)NO)CCOCC2)cc1 [Example 18, 4-(4-But-2-ynyloxy-benzenesulfonylmethyl)-tetrahydro-pyran-4-carboxylic acid hydroxyamide] | 45% |  |
| 74 nM |  | 1320 nM | CC#CCOc1ccc([S+]([O-])CC2(C(=O)NO)CCOCC2)cc1 (centres unmarked) [Example 19, 4-(4-But-2-ynyloxy-benzenesulfinylmethyl)-tetrahydro-pyran-4-carboxylic acid hydroxyamide] | 4% |  |
| 18 nM | 8580 nM | 1020 nM | CC#CCOc1ccc(S(=O)(=O)CC2(C(=O)NO)CCN(CC#CC)CC2)cc1 [Example 37, 1-(2-Butynyl)-4-({[4-(2-butynyloxy)phenyl]sulfonyl}methyl)-N-hydroxy-4-piperidinecarboxamide hydrochloride] |  | IC50 (MMP-1): 8600 nM |
| 11 nM | 4280 nM | 809 nM | CC#CCOc1ccc(S(=O)(=O)CC2(C(=O)NO)CCN(C(=O)OC)CC2)cc1 [Example 39, Methyl 4-({[4-(2-butynyloxy)phenyl]sulfonyl}methyl)-4-[(hydroxyamino)-carbonyl]-1-piperidinecarboxylate] |  | IC50 (MMP-1): 3770 nM |
